Earlier results, collected in article PMC5111556 (Organic & biomolecular chemistry, 2016).

Tested on: αvβ3

Substance: Cilengitide
- αvβ3-targeted antiangiogenic therapy (in words): initial promise
